Earlier results in paper PMC7791840, “The R-enantiomer of ketorolac reduces ovarian cancer tumor burden in vivo” (BMC Cancer, 2021).

Assays:
[1] = system: Rac1; parameters: method as in earlier work; settings: cell-based assays, ovarian tumor cells; ref 23 (R-ketorolac), 27 (S-ketorolac); cited from earlier work
[2] = system: Cdc42; parameters: method as in earlier work; settings: cell-based assays, ovarian tumor cells; ref 23 (R-ketorolac), 27 (S-ketorolac); cited from earlier work
[3] = system: COX-1; parameters: method as in PMID 26558612, PMID 10027870; settings: cited from earlier work
[4] = system: COX-2; parameters: method as in PMID 26558612, PMID 10027870; settings: cited from earlier work
[5] = parameters: method as in PMID 8809637; settings: mice; cited from earlier work
[6] = system: HEY8 ovarian cancer xenografts; parameters: method as in PMID 25595279; settings: cited from earlier work

Compound	IC50 [1]	IC50 [2]	IC50 [3]	IC50 [4]	Conversion of S-enantiomer to R-enantiomer [5]	Number of tumor nodules [6]	Tumor weight [6]
O=C(c1ccccc1)c1ccc2n1CC[C@@H]2C(=O)O [S-ketorolac]	> 100000 nM	> 100000 nM	460 nM	1460 nM	significantly converted to the R-enantiomer in mice		
O=P(O)(O)C(O)(Cn1ccnc1)P(=O)(O)O [zoledronic acid, Zoledronic acid]						decreased	decreased
